# What was measured:
# Cathepsin S = Cathepsin S (Homo sapiens, UniProt P25774); experiment: (§1) Enzyme Inhibition Assay: Enzyme activity is measured by observing the increase in fluorescence intensity caused by cleavage of a peptide substrate containing a fluorophore whose emission is quenched in the intact peptide.Assay buffer: 100 mM potassium phosphate pH 6.5, EDTA-Na 5 mM, Triton X-100 0.001%, DTT 5 mM.Enzymes (all at 1 nM): human and mouse Cathepsin S, Cat K, Cat B, Cat L.Substrate (20 μM): Z-Val-Val-Arg-AMC, except for Cat K which uses Z-Leu-Arg-AMC (both from Bachem).Z=Benzyloxycarbonyl.AMC=7-Amino-4-Methyl-Coumarin.DTT=dithiothreitol.Final volume: 100 μL.Excitation 360 nm, Emission 465 nm.Enzyme is added to the substance dilutions in 96-well microtitre plates and the reaction is started with substrate. Fluorescence emission is measured over 20 minutes, during which time a linear increase is observed in the absence of inhibitor.
# Procathepsin L = Procathepsin L (Homo sapiens, UniProt P07711); experiment: as §1
# Procathepsin L, sequence (P07711 whole entry): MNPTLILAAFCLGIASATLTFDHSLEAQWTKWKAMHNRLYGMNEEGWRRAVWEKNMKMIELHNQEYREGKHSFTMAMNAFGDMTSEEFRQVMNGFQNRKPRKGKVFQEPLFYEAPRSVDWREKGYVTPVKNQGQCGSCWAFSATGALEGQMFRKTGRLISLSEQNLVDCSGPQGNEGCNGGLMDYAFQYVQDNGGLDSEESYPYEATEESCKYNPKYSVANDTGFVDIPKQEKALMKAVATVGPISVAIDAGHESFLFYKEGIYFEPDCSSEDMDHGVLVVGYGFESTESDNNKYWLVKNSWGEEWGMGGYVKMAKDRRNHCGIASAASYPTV
# Cathepsin S, sequence (P25774 whole entry): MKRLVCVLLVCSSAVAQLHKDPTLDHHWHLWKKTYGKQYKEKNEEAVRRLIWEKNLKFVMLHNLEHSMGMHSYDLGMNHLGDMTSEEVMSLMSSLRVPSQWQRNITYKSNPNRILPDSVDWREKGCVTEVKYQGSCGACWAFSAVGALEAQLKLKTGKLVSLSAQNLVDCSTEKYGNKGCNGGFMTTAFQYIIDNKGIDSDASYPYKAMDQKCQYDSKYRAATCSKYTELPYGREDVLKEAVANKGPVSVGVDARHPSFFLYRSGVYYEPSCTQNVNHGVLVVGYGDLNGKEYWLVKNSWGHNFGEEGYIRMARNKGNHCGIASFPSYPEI
IC50 (Cathepsin S) [nM],IC50 (Procathepsin L) [nM],Compound
1030,> 25000,N#CC1(NC(=O)[C@@H]2C[C@@H](Sc3ncc(C(F)(F)F)cc3Cl)CN2C(=O)C2(c3ncc(Cl)cc3F)CC2)CC1
0.474,72.6,N#CC1(NC(=O)[C@@H]2C[C@@H](S(=O)(=O)c3ccc(Br)cc3Cl)CN2C(=O)C2(c3ncc(Cl)cc3F)CC2)CC1
0.543,56.8,N#CC1(NC(=O)[C@@H]2C[C@@H](S(=O)(=O)c3cc(C(F)(F)F)ccc3Cl)CN2C(=O)C2(c3ncc(Cl)cc3F)CC2)CC1

# Source: ChEMBL document CHEMBL3886859, “Pyridine derivatives” (2016)
